{"source": "patent US20160051567A1", "about": "“PREVENTION AND TREATMENT OF KIDNEY DAMAGE” (METSELEX, INC., priority 2013, published 2016)", "key": {"rat model of AKI [1]": {"test_system": "rat model of AKI", "assay": "Rat model of AKI (warm ischemia reperfusion), blood urea levels", "format": "in vivo", "details": "400 mg/kg/day intraperitoneal", "experimental": "(§1) Rat model of AKI: All experiments were performed in accordance with the Institutional Animal Care and Use Committee. Six to eight week old Sprague-Dawley rats were anaesthetized by isoflurane gas, a midline abdominal incision was made, and bilateral renal pedicles were clamped for 45 minutes maintaining body temperature at 37° C. After removing the clamps, the abdomen was closed in two layers by using 4-0 absorbable sutures and Reflex 9 mm clips. Blood samples were obtained daily by tail vein puncture. Blood urea levels were measured by the improved Jung method using the QuantiChrom™ Urea Assay Kit as per manufacturer's protocol. Kidneys were harvested five days following surgery.\n(§2) Administration of TUDCA: 200 mg/mL of TUDCA (Sigma) was dissolved in phosphate buffered saline at pH 7.5. 400 mg/kg of TUDCA or equal volume of vehicle was administered to rats by daily intraperitoneal injection from three days prior to surgery […] to five days (day 5) following surgery. The TUDCA dose was based on previous studies and its solubility at physiological pH."}, "rat model of AKI [2]": {"test_system": "rat model of AKI", "assay": "Histological injury score (PAS stain) of kidney sections after AKI", "format": "in vivo", "details": "five days after AKI, 400 mg/kg/day", "experimental": "as §1, §2\n(§3) Histology and TUNEL assay: 4% paraformaldehyde-fixed, paraffin-embedded 5 μm kidney sections were stained with Periodic acid-Schiff (PAS) stain using standard methods. Histological examination was performed by a renal pathologist in a blinded fashion. Histological injury was scored based on the percentage of tubular cell necrosis, dilation, and cell detachment as per the PAS protocol. Reagents for the PAS assay were purchased from Sigma-Aldrich (St. Louis, Mo.) and the accompanying protocol was used. […] Apoptotic cells were detected by TUNEL assay using an APO-DIRECT™ kit as per manufacturer's protocol. The average injury score and percentage of TUNEL-positive cells from the renal cortex (superficial and deep), medulla (outer and inner), and papilla were counted and calculated separately and averaged to obtain the total score. […]"}, "rat model of AKI [3]": {"test_system": "rat model of AKI", "assay": "TUNEL assay of kidney sections after AKI", "format": "in vivo", "experimental": "as §1, with “surgery. […]” for “surgery.”\nas §3, with “Histological examination was performed by a renal pathologist in a blinded fashion.” left out, “protocol.” for “protocol. Reagents for the PAS assay were purchased from Sigma-Aldrich (St. Louis, Mo.) and the accompanying protocol was used.”"}, "caspase-9 [4]": {"test_system": "caspase-9", "assay": "Western blot for active caspase-9 in kidney after AKI", "format": "in vivo", "details": "rat kidney after AKI, Western blot with densitometry, p<0.01", "experimental": "as §1\n(§4) Administration of TUDCA: 200 mg/mL of TUDCA (Sigma) was dissolved in phosphate buffered saline at pH 7.5. […]\n(§5) Protein extraction: Frozen kidney tissue was ground in liquid nitrogen using a pestle and mortar. […] The amount of protein present in the solution was quantified by the Bicinchoninic Acid Protein Assay kit as per manufacturer's protocol.\n(§6) Western blot analysis: 20 μg of protein was mixed with SDS-PAGE sample buffer, boiled for 5 minutes, electrophoresed on a 12% Tris-HCl SDS-PAGE gel for 1 hour at 200 V, and electroblotted onto a nitrocellulose membrane. […] The immunoblot was detected using SuperSignal West Femto Maximum Sensitivity Substrate Kit. […]"}, "caspase-8 [5]": {"test_system": "caspase-8", "assay": "Western blot for active caspase-8 in kidney after AKI", "format": "in vivo", "details": "rat kidney after AKI, TUDCA- vs vehicle-treated rats", "experimental": "as §1, §4, §5, §6"}, "caspase-12": {"test_system": "caspase-12", "assay": "Western blot for active caspase-12 in kidney after AKI", "format": "in vivo", "details": "rat kidney after AKI, TUDCA- vs vehicle-treated rats", "experimental": "as §1, §4, §5, §6"}, "ERK1/2 [6]": {"test_system": "ERK1/2", "assay": "Western blot for ERK1/2 in kidney after AKI", "format": "in vivo", "details": "rat kidney after AKI, vs controls, p=0.29", "experimental": "as §1, §4, §5, §6"}, "JNK [7]": {"test_system": "JNK", "assay": "Western blot for p-JNK in kidney after AKI", "format": "in vivo", "details": "rat kidney after AKI, TUDCA vs vehicle group", "experimental": "as §1, §4, §5, §6"}, "p38 [8]": {"test_system": "p38", "assay": "Western blot for p-p38 in kidney after AKI", "format": "in vivo", "details": "rat kidney after AKI, TUDCA vs vehicle group", "experimental": "as §1, §4, §5, §6"}, "[9]": {"test_system": "human renal proximal tubular epithelial cells (RPTE)", "assay": "Cytotoxicity assay (MultiTox-Glo) in RPTE cells", "format": "cell-based", "details": "24 hours", "experimental": "(§7) Cell culture: RPTE cells were grown in Renal Epithelial Cell Basal Medium (REBM) with full supplements at 37° C. in 5% CO2 incubator as per supplier's instructions. RPTE cells were able to proliferate for 6-8 passages under the culture conditions.\n(§8) Viability and Cytotoxicity Assays: Cytotoxicity and viability were determined using MultiTox-Glo Multiplex Cytotoxicity Assay kit as per manufacturer's protocols. RPTE cells were seeded in 96-well culture plates at a density of 1.2×10^4 cells per well. Subsequently, TUDCA was added to the wells to achieve final concentrations of 15, 150, 300, 450, 600, and 1200 μM. Following 24 hours of culture, to determine viability, 50 μL of GF-AFC Reagent was added to each well. The plates were gently shaken and incubated at 37° C. for 30 minutes in the dark. The cell viability was determined by measuring fluorescence at 400 nmEx/505 nmEm. Subsequently, to determine cytotoxicity, 50 μL of AAF-Glo Reagent was added to each well. The plates were shaken gently and incubated at room temperature for 15 minutes in the dark. Cytotoxicity was determined by measuring luminescence as per manufacturer's protocol."}, "[10]": {"test_system": "human renal proximal tubular epithelial cells (RPTE)", "assay": "Viability assay (MultiTox-Glo) in RPTE cells", "format": "cell-based", "details": "15 μM to 1200 μM, 24 hours", "experimental": "as §7, §8"}, "caspase-3": {"test_system": "caspase-3", "assay": "Caspase-3 activity assay in RPTE cells after cryopreservation injury", "format": "cell-based, human", "details": "150-600 μM, dose-dependent, p<0.05", "experimental": "as §7\n(§9) Cryopreservation injury: We have utilized a published cell culture model of cryopreservation injury. In brief, RPTE cells were grown to 80% confluence in the complete medium containing TUDCA or vehicle. The complete medium was then replaced with University of Wisconsin solution containing TUDCA or vehicle. The culture plates were subsequently incubated in a temperature-regulated refrigerator at 4° C. for 48 hours. […]\nas §5\nCaspase-3 activity assay: The caspase-3 activity in kidney and RPTE extracts was quantified using Apo-One® Homogeneous Caspase-3/7 Assay kit as per the manufacturer's protocol. […] Fluorescence was measured by Spectramax M12 fluorescent plate reader (Molecular Devices) using wavelengths of 485 nmEx/520 nmEm. […]"}, "caspase-9 [11]": {"test_system": "caspase-9", "assay": "Caspase-9 activity assay in RPTE cells after cryopreservation injury", "format": "cell-based, human", "details": "100 μM and 150 μM, p<0.05", "experimental": "as §7\nCryopreservation injury: We have utilized a published cell culture model of cryopreservation injury. In brief, RPTE cells were grown to 80% confluence in the complete medium containing TUDCA or vehicle. The complete medium was then replaced with University of Wisconsin solution containing TUDCA or vehicle. The culture plates were subsequently incubated in a temperature-regulated refrigerator at 4° C. for 48 hours. To simulate warm reperfusion phase of kidney transplantation, University of Wisconsin solution was replaced with complete medium containing TUDCA or vehicle, and cells were cultured for an additional 24 hours at 37° C. We used 100 μM or 150 μM of TUDCA for these experiments.\nCaspase-9 Assay: The caspase-9 activity was measured in RPTE cells using Caspase-9 Assay kit. RPTE cells were suspended in 50 μL of chilled Cell Lysis Buffer and incubated on ice for 10 minutes. Subsequently, 50 μL of 2× Reaction Buffer and 5 μL of 1 mM LEHD-AFC substrate was added to each sample and the mixtures were incubated at 37° C. for 2 hours. The caspase-9 activity was quantified by measuring […]."}, "caspase-8 [12]": {"test_system": "caspase-8", "assay": "Western blot for caspase-8 in RPTE cells after cryopreservation injury", "format": "cell-based, human", "experimental": "Cell culture: RPTE cells were grown in Renal Epithelial Cell Basal Medium (REBM) with full supplements at 37° C. in 5% CO2 incubator as per supplier's instructions. RPTE cells were able to proliferate for 6-8 passages under the culture conditions. Cryopreservation injury: We have utilized a published cell culture model of cryopreservation injury. In brief, RPTE cells were grown to 80% confluence in the complete medium containing TUDCA or vehicle. The complete medium was then replaced with University of Wisconsin solution containing TUDCA or vehicle. The culture plates were subsequently incubated in a temperature-regulated refrigerator at 4° C. for 48 hours. To simulate warm reperfusion phase of kidney transplantation, University of Wisconsin solution was replaced with complete medium containing TUDCA or vehicle, and cells were cultured for an additional 24 hours at 37° C. We used 100 μM or 150 μM of TUDCA for these experiments. Protein extraction: Frozen kidney tissue was ground in liquid nitrogen using a pestle and mortar. […] The amount of protein present in the solution was quantified by the Bicinchoninic Acid Protein Assay kit as per manufacturer's protocol. […] The immunoblot was detected using SuperSignal West Femto Maximum Sensitivity Substrate Kit. […]"}, "procaspase-12": {"test_system": "procaspase-12", "assay": "Western blot for procaspase-12 in RPTE cells after cryopreservation injury", "format": "cell-based, human", "experimental": "as §7, §9, §5, §6"}, "ERK1/2 [13]": {"test_system": "ERK1/2", "assay": "Western blot for phosphorylated ERK1/2 in RPTE cells after cryopreservation injury", "format": "cell-based, human", "experimental": "as §7, §9, §5, §6"}, "JNK [14]": {"test_system": "JNK", "assay": "Western blot for JNK in RPTE cells after cryopreservation injury", "format": "cell-based, human", "details": "100 and 150 μM", "experimental": "as §7, §9, §5, §6"}, "p38 [15]": {"test_system": "p38", "assay": "Western blot for p38 in RPTE cells after cryopreservation injury", "format": "cell-based, human", "details": "100 and 150 μM", "experimental": "as §7, §9, §5, §6"}, "cell culture": {"test_system": "cell culture", "details": "has been shown; cited from earlier work"}, "[16]": {"details": "TUDCA over UDCA; cited from earlier work"}}, "note": "“Also recorded” adds a separate entry of the source.", "data": [{"smiles": "C[C@H](CCC(=O)NCCS(=O)(=O)O)[C@H]1CC[C@H]2[C@@H]3[C@@H](O)C[C@@H]4C[C@H](O)CC[C@]4(C)[C@H]3CC[C@]12C", "note": "[TUDCA, tauroursodeoxycholic acid]", "values": [{"measurement": "elevation in blood urea levels vs vehicle group", "setting": "rat model of AKI [1]; days 1 (p<0.001) and 2 (p<0.01) following AKI", "result": "significantly less elevation in blood urea levels"}, {"measurement": "blood urea vs vehicle group", "setting": "rat model of AKI [1]; days 3-5 following AKI", "result": "blood urea was lower in the TUDCA-treated rats, the difference was not statistically significant"}, {"measurement": "histological injury vs vehicle-treated rats", "setting": "rat model of AKI [2]; deep cortex, p<0.001", "result": "significantly less injury"}, {"measurement": "histological injury vs vehicle-treated rats", "setting": "rat model of AKI [2]; medulla or papilla", "result": "no differences"}, {"measurement": "histological injury vs vehicle-treated rats", "setting": "rat model of AKI [2]; superficial cortex, p<0.05", "result": "significantly less injury"}, {"measurement": "TUNEL-positive cells vs vehicle-treated rats", "setting": "rat model of AKI [3]; outer strip of the outer medulla, p<0.001", "result": "significantly less TUNEL-positive cells"}, {"measurement": "TUNEL-positive cells vs vehicle-treated rats", "setting": "rat model of AKI [3]; superficial and deep cortices, p<0.05", "result": "significantly less TUNEL-positive cells"}, {"measurement": "activation of caspase-9 (mitochondrial pathway of apoptosis)", "setting": "caspase-9 [4]", "result": "significantly inhibited"}, {"measurement": "activation of caspase-8 (death-receptor pathway)", "setting": "caspase-8 [5]", "result": "no significant difference"}, {"measurement": "activation of caspase-12 (ER-stress pathway)", "setting": "caspase-12", "result": "no significant difference"}, {"measurement": "activation of ERK1/2", "setting": "ERK1/2 [6]", "result": "increased ERK1/2 levels in two out of three rats; also recorded: increased activation of ERK1/2 in the TUDCA group, although without statistical significance"}, {"measurement": "amount of p-JNK", "setting": "JNK [7]", "result": "No difference"}, {"measurement": "amount of p-p38", "setting": "p38 [8]", "result": "No difference"}, {"measurement": "cytotoxicity", "setting": "[9]; 1200 μM, p<0.05", "result": "cytotoxic"}, {"measurement": "cytotoxicity", "setting": "[9]; 15 to 600 μM", "result": "did not cause cytotoxicity"}, {"measurement": "cell viability", "setting": "[10]", "result": "None of the tested concentrations of TUDCA decreased cell viability"}, {"measurement": "caspase-3 activation after cryopreservation injury", "setting": "caspase-3", "result": "significantly inhibited"}, {"measurement": "caspase-9 activation after cryopreservation injury", "setting": "caspase-9 [11]", "result": "significantly inhibited"}, {"measurement": "activation of procaspase-8 (death receptor pathway)", "setting": "caspase-8 [12]", "result": "no effect"}, {"measurement": "activation of procaspase-12 (ER-stress pathway)", "setting": "procaspase-12", "result": "no effect"}, {"measurement": "activation of ERK1/2 (phosphorylated ERK1/2)", "setting": "ERK1/2 [13]; 100 μM, p<0.05", "result": "activated ERK1/2"}, {"measurement": "activation of ERK1/2 (phosphorylated ERK1/2)", "setting": "ERK1/2 [13]; 150 μM, p<0.01", "result": "activated ERK1/2"}, {"measurement": "effect on JNK", "setting": "JNK [14]", "result": "no effect"}, {"measurement": "effect on p38", "setting": "p38 [15]", "result": "no effect"}, {"measurement": "safe concentrations in cell culture experiments", "setting": "cell culture", "result": "safe in concentrations ranging from 100 nM up to 5 mM"}, {"measurement": "solubility at physiological pH compared with UDCA", "setting": "[16]", "result": "higher solubility at physiological pH"}]}]}
